According to patent US7138361B2, “Herbicidal heterocycles” (E. I. du Pont de Nemours and Company, priority 2000, dated 2006):

Columns and labels:
Format in all cases: in vivo
Sunflower [1] = assay: Test C preemergence; conditions: scale 0 to 100, 0 no effect, 100 complete control
[2] = system: pigweed (Amaranthus retroflexus); assay: Test B preemergence
How it was run: (§1)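 Post-treatment, species sat 13–15 days under greenhouse conditions before visual scoring against controls, 0 (no effect) through 100 (complete control). Application preemergence to sown seeds or postemergence at 1- to 4-leaf stage, using a non-phytotoxic solvent/surfactant formulation.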

[3] = system: barnyardgrass (Echinochloa crus-galli); assay: Test B preemergence
How it was run: as §1

[4] = system: giant foxtail (Setaria faberii); assay: Test B preemergence
How it was run: as §1

[5] = system: velvetleaf (Abutilon theophrasti); assay: Test B preemergence
How it was run: as §1

[6] = system: Surinam grass (Brachiaria decumbens); assay: Test B preemergence
How it was run: as §1

[7] = system: cocklebur (Xanthium strumarium); assay: Test B preemergence
How it was run: as §1

corn (Zea mays) [8] = assay: Test B preemergence
How it was run: as §1

[9] = system: lambsquarters (Chenopodium album); assay: Test B preemergence
How it was run: as §1

[10] = system: morning glory (Ipomoea hederacea); assay: Test B preemergence
How it was run: as §1

[11] = system: crabgrass (Digitaria sanguinalis); assay: Test B preemergence
How it was run: as §1

rice (Oryza saliva) = assay: Test B preemergence
How it was run: as §1

[12] = system: pigweed (Amaranthus retroflexus); assay: Test B postemergence; conditions: 13 to 15 days
How it was run: as §1

[13] = system: barnyardgrass (Echinochloa crus-galli); assay: Test B postemergence; conditions: 13 to 15 days
How it was run: as §1

[14] = system: giant foxtail (Setaria faberii); assay: Test B postemergence; conditions: 13 to 15 days
How it was run: as §1

[15] = system: velvetleaf (Abutilon theophrasti); assay: Test B postemergence; conditions: 13 to 15 days
How it was run: as §1

[16] = system: Surinam grass (Brachiaria decumbens); assay: Test B postemergence; conditions: 13 to 15 days
How it was run: as §1

[17] = system: cocklebur (Xanthium strumarium); assay: Test B postemergence; conditions: 13 to 15 days
How it was run: as §1

corn (Zea mays) [18] = assay: Test B postemergence; conditions: 13 to 15 days
How it was run: as §1

[19] = system: wheat (Triticum aestivum); assay: Test B postemergence; conditions: 13 to 15 days
How it was run: as §1

[20] = system: lambsquarters (Chenopodium album); assay: Test B postemergence; conditions: 13 to 15 days
How it was run: as §1

wild oat (Avena fatua) = assay: Test B postemergence; conditions: 13 to 15 days
How it was run: as §1

[21] = system: blackgrass (Alopecurus myosuroides); assay: Test B postemergence; conditions: 13 to 15 days
How it was run: as §1

[22] = system: morning glory (Ipomoea hederacea); assay: Test B postemergence; conditions: 13 to 15 days
How it was run: as §1

[23] = system: crabgrass (Digitaria sanguinalis); assay: Test B postemergence; conditions: 13 to 15 days
How it was run: as §1

[24] = system: smallflower flatsedge (Cyperus difformis); assay: Test C flooded paddy test; conditions: for Flatsedge plant response rating: Flooded Paddy, scale 0 to 100, 0 no effect, 100 complete control; for Plant response rating, Flatsedge: flooded paddy test, scale 0 to 100 (0 no effect, 100 complete control)
How it was run: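 Greenhouse-maintained for 12 to 14 days after treatment, the paddy plants (2-leaf stage at application) were scored visually against controls. A score of 0 denotes no effect and a score of 100 denotes complete control.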

Sunflower [25] = assay: Test C preemergence; conditions: Rate 500 g/ha, visual evaluation after 12 to 14 days
[26] = Preemergence, Rate 500 g/ha, scale 0 to 100, 0 no effect, 100 complete control
[27] = preemergence, Rate 125 g/ha, scale of 0 to 100 where 0 is no effect and 100 is complete control, 13 to 15 days
[28] = Rate 125 g/ha, scale 0 (no effect) to 100 (complete control)
[29] = Rate 500 g/ha, scale 0 to 100, 0 is no effect, 100 is complete control

CC1(c2ccn(C3SCN(c4cccc(OC(F)(F)F)c4)C3=O)n2)CC1 (stereo not shown) [Compound 63]
Plant response rating, Sunflower (Sunflower [1]; Rate 125 g/ha): 0
Plant response rating, Sunflower (Sunflower [1]; Rate 250 g/ha): 40
Plant response rating, Pigweed [2, 26]: 100
Plant response rating, Pigweed [2, 27]: 100
Plant response rating, Barnyardgrass [3, 26]: 90
Plant response rating, Barnyardgrass [3, 27]: 50
Plant response rating, Foxtail, Giant [4, 26]: 90
Plant response rating, Foxtail, Giant [4, 27]: 50
Plant response rating, Velvetleaf [5, 26]: 0
Plant response rating, Velvetleaf [5, 27]: 0
Plant response rating, Surinam grass [6, 26]: 30
Plant response rating, Surinam grass [6, 27]: 0
Plant response rating, Cocklebur [7, 26]: 0
Plant response rating, Cocklebur [7, 27]: 0
Plant response rating, Corn (corn (Zea mays) [8]; [26]): 0
Plant response rating, Corn (corn (Zea mays) [8]; [27]): 0
Plant response rating, Lambsquarters [9, 26]: 100
Plant response rating, Lambsquarters [9, 27]: 100
Plant response rating, Morningglory [10, 26]: 0
Plant response rating, Morningglory [10, 27]: 0
Plant response rating, Crabgrass [11, 26]: 100
Plant response rating, Crabgrass [11, 27]: 0
Plant response rating, Rice (rice (Oryza saliva); [26]): 0
Plant response rating, Rice (rice (Oryza saliva); [27]): 0
Plant response rating, Pigweed [12, 28]: 50
Plant response rating, Pigweed [12, 29]: 70
Plant response rating, Barnyardgrass [13, 28]: 0
Plant response rating, Barnyardgrass [13, 29]: 60
Plant response rating, Foxtail, Giant [14, 28]: 0
Plant response rating, Foxtail, Giant [14, 29]: 50
Plant response rating, Velvetleaf [15, 28]: 0
Plant response rating, Velvetleaf [15, 29]: 50
Plant response rating, Surinam grass [16, 28]: 0
Plant response rating, Surinam grass [16, 29]: 0
Plant response rating, Cocklebur [17, 28]: 0
Plant response rating, Cocklebur [17, 29]: 50
Plant response rating, Corn (corn (Zea mays) [18]; [28]): 0
Plant response rating, Corn (corn (Zea mays) [18]; [29]): 0
Plant response rating, Wheat [19, 28]: 0
Plant response rating, Wheat [19, 29]: 0
Plant response rating, Lambsquarters [20, 28]: 60
Plant response rating, Lambsquarters [20, 29]: 80
Plant response rating, Wild Oat (wild oat (Avena fatua); [28]): 0
Plant response rating, Wild Oat (wild oat (Avena fatua); [29]): 0
Plant response rating, Blackgrass [21, 28]: 0
Plant response rating, Blackgrass [21, 29]: 0
Plant response rating, Morningglory [22, 28]: 0
Plant response rating, Morningglory [22, 29]: 40
Plant response rating, Crabgrass [23, 28]: 0
Plant response rating, Crabgrass [23, 29]: 60
Flatsedge plant response rating ([24]; Rate 250 g/ha): 100
Flatsedge plant response rating ([24]; Rate 500 g/ha): 100
Plant response rating, Flatsedge ([24]; Rate 62 g/ha): 90
Plant response rating, Flatsedge ([24]; Rate 125 g/ha): 100
Plant response rating (0 to 100), Sunflower (Sunflower [25]): 60
